Legend:
[1] = system: rheumatoid arthritis; parameters: method as in PMID 26233509; settings: DMARD-refractory active RA patients; cited from earlier work
[2] = system: CD11b+ CD11c+ MHCII- nonclassical monocytes; assay: Mouse DSS model of colitis: circulating non-classical monocytes by FACS; format: in vivo; settings: 100 mg/kg QD day 7–14
Description: (§1) On day 0, super prophylactic dosing of compound 2 began on C57BL/6 female mice. […] At this time compound 3 dosing initiated. […] Statistical analyses of in-vivo pharmacodynamic and efficacy data were performed as follows. D'Agostino & Pearson normality test was first used to test data for Gaussian distribution. If all groups passed normality test, a One-way ANOVA was used with Dunnett’s multiple comparisons test to compare treatment groups to Vehicle group. If not all groups passed normality test, a Kruskal-Wallis nonparametric ANOVA was used, with Dunn’s multiple comparison test to compare treatment groups to Vehicle group. Levels of significance compared to Vehicle are annotated as follows: * = p<0.05, ** = p<0.01, *** = p<0.001, **** = p < 0.0001. Optimal number of mice per group was determined using power analysis; N = 10 mice per group at 80% power predicts statistically significant detection of ≥ ~40% reduction in colon IBA1+ and ≥ ~75% reduction in colon erosion length comparing treatment groups to Vehicle group. Naïve groups were omitted from statistical analyses.

[3] = system: IBA1+ macrophages in the colon; assay: Mouse DSS model of colitis: colon macrophages by image analysis; format: in vivo; settings: 100 mg/kg QD day 7–14
Description: as §1

[4] = system: murine colitis; parameters: method as in earlier work; settings: cited from earlier work

## CC1(C)CC=C(c2nc(C3CC(C)(C)OC(C)(C)C3)ccc2NC(=O)c2nc(C#N)c[nH]2)CC1 [Compound 3]
[1]
  Efficacy in Phase II trial: lack of efficacy
[2]
  Depletion of CD11b+ CD11c+ MHCII- nonclassical monocytes: 94%
[3]
  Depletion of macrophages (IBA1+) in the colon: 76%
[4]
  Clinical and histopathological disease readouts: reduction in clinical and histopathological disease readouts
